The supplement of paper PMC4862054

What follows are compounds tested on CAL-148 (assay: normalised viability (% of control), CellTiter-Blue; higher = more viable cells (about 100 = DMSO control)). Settings: incubation time: 72 h.
Experimental: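 DSRT, CellTiter-Blue viability, 72 h incubation. Signal is normalised to DMSO and benzethonium chloride controls. Value is the normalised response at dose 9.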

Structure (SMILES)	normalised viability
CO[C@H]1/C=C\C=C(/C)C(=O)NC2=CC(=O)C(NCCN(C)C)=C(C[C@@H](C)C[C@H](OC)[C@H](O)[C@@H](C)/C=C(\C)[C@@H]1OC(N)=O)C2=O [Alvespimycin] (1000 nM)	4.23%
CN(C)/N=N/c1[nH]cnc1C(N)=O [Dacarbazine] (10000 nM)	96.2%
Cc1ccc(-n2nc(C(C)(C)C)cc2NC(=O)Nc2ccc(OCCN3CCOCC3)c3ccccc23)cc1 [Doramapimod] (10000 nM)	111%
Cc1ccc(C(=O)Nc2ccc(CN3CCN(C)CC3)c(C(F)(F)F)c2)cc1C#Cc1cnc2cccnn12 [Ponatinib] (1000 nM)	77.5%
COc1cc2nccc(Oc3ccc(NC(=O)C4(C(=O)Nc5ccc(F)cc5)CC4)cc3)c2cc1OC [Cabozantinib] (1000 nM)	78.7%
CC1(C)NC(=O)N(c2ccc([N+](=O)[O-])c(C(F)(F)F)c2)C1=O [Nilutamide] (10000 nM)	99.8%

The compounds below were run on MDA-MB-453 (assay: normalised response (% of control), CellTiter-Glo; higher = more viable cells (100 = DMSO, 0 = benzethonium chloride kill control)). Settings: incubation time: 72 h.
How it was run: (§1)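 In 384-well plates holding compound at 5 concentrations in 10-fold steps over a 10,000-fold range specific to each compound, breast cancer cell lines were seeded as 20 µl suspension and incubated 72 h. CellTox Green fluorescence was measured at 485/520 nm, after which CellTiter-Glo luminescence was measured following 10 min at room temperature. Plate signals were normalised to 0.1 % DMSO (100) and a positive kill control (0), and each value is the normalised signal at a single concentration.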

Structure (SMILES)	normalised response
N[C@@H](CSC(c1ccccc1)(c1ccccc1)c1ccccc1)C(=O)O [S-trityl-L-cysteine] (40000 nM)	86.2%
CNCc1ccc(-c2[nH]c3cc(F)cc4c3c2CCNC4=O)cc1 [Rucaparib] (10000 nM)	117%
CO[C@H]1/C=C\C=C(/C)C(=O)NC2=CC(=O)C(NCCN(C)C)=C(C[C@@H](C)C[C@H](OC)[C@H](O)[C@@H](C)/C=C(\C)[C@@H]1OC(N)=O)C2=O [Alvespimycin] (1000 nM)	28.1%
CN(C)/N=N/c1[nH]cnc1C(N)=O [Dacarbazine] (10000 nM)	99.9%
Cc1ccc(-n2nc(C(C)(C)C)cc2NC(=O)Nc2ccc(OCCN3CCOCC3)c3ccccc23)cc1 [Doramapimod] (10000 nM)	82.9%
Cc1ccc(C(=O)Nc2ccc(CN3CCN(C)CC3)c(C(F)(F)F)c2)cc1C#Cc1cnc2cccnn12 [Ponatinib] (1000 nM)	77.3%
COc1cc2nccc(Oc3ccc(NC(=O)C4(C(=O)Nc5ccc(F)cc5)CC4)cc3)c2cc1OC [Cabozantinib] (1000 nM)	95.4%
CC1(C)NC(=O)N(c2ccc([N+](=O)[O-])c(C(F)(F)F)c2)C1=O [Nilutamide] (10000 nM)	102%

What follows are compounds tested on HCC1599 in the same assay as above. Settings: incubation time: 72 h.
How it was run: as §1

Structure (SMILES)	normalised response
N[C@@H](CSC(c1ccccc1)(c1ccccc1)c1ccccc1)C(=O)O [S-trityl-L-cysteine] (40000 nM)	103%
CNCc1ccc(-c2[nH]c3cc(F)cc4c3c2CCNC4=O)cc1 [Rucaparib] (10000 nM)	82.2%
CO[C@H]1/C=C\C=C(/C)C(=O)NC2=CC(=O)C(NCCN(C)C)=C(C[C@@H](C)C[C@H](OC)[C@H](O)[C@@H](C)/C=C(\C)[C@@H]1OC(N)=O)C2=O [Alvespimycin] (1000 nM)	58.8%
CN(C)/N=N/c1[nH]cnc1C(N)=O [Dacarbazine] (10000 nM)	109%
Cc1ccc(-n2nc(C(C)(C)C)cc2NC(=O)Nc2ccc(OCCN3CCOCC3)c3ccccc23)cc1 [Doramapimod] (10000 nM)	68.7%
Cc1ccc(C(=O)Nc2ccc(CN3CCN(C)CC3)c(C(F)(F)F)c2)cc1C#Cc1cnc2cccnn12 [Ponatinib] (1000 nM)	108%
COc1cc2nccc(Oc3ccc(NC(=O)C4(C(=O)Nc5ccc(F)cc5)CC4)cc3)c2cc1OC [Cabozantinib] (1000 nM)	102%
CC1(C)NC(=O)N(c2ccc([N+](=O)[O-])c(C(F)(F)F)c2)C1=O [Nilutamide] (10000 nM)	106%

Each compound was assayed on SK-BR-3 in the same assay as above. Settings: incubation time: 72 h.
How it was run: as §1

Structure (SMILES)	normalised response
N[C@@H](CSC(c1ccccc1)(c1ccccc1)c1ccccc1)C(=O)O [S-trityl-L-cysteine] (40000 nM)	99%
CNCc1ccc(-c2[nH]c3cc(F)cc4c3c2CCNC4=O)cc1 [Rucaparib] (10000 nM)	67.7%
CO[C@H]1/C=C\C=C(/C)C(=O)NC2=CC(=O)C(NCCN(C)C)=C(C[C@@H](C)C[C@H](OC)[C@H](O)[C@@H](C)/C=C(\C)[C@@H]1OC(N)=O)C2=O [Alvespimycin] (1000 nM)	36%
CN(C)/N=N/c1[nH]cnc1C(N)=O [Dacarbazine] (10000 nM)	111%
Cc1ccc(-n2nc(C(C)(C)C)cc2NC(=O)Nc2ccc(OCCN3CCOCC3)c3ccccc23)cc1 [Doramapimod] (10000 nM)	69.5%
Cc1ccc(C(=O)Nc2ccc(CN3CCN(C)CC3)c(C(F)(F)F)c2)cc1C#Cc1cnc2cccnn12 [Ponatinib] (1000 nM)	68.3%
COc1cc2nccc(Oc3ccc(NC(=O)C4(C(=O)Nc5ccc(F)cc5)CC4)cc3)c2cc1OC [Cabozantinib] (1000 nM)	107%
CC1(C)NC(=O)N(c2ccc([N+](=O)[O-])c(C(F)(F)F)c2)C1=O [Nilutamide] (10000 nM)	108%

Each compound was assayed on HDQ-P1 in the same assay as above. Settings: incubation time: 72 h.
How it was run: as §1

Structure (SMILES)	normalised response
N[C@@H](CSC(c1ccccc1)(c1ccccc1)c1ccccc1)C(=O)O [S-trityl-L-cysteine] (40000 nM)	102%
CNCc1ccc(-c2[nH]c3cc(F)cc4c3c2CCNC4=O)cc1 [Rucaparib] (10000 nM)	85.3%
CO[C@H]1/C=C\C=C(/C)C(=O)NC2=CC(=O)C(NCCN(C)C)=C(C[C@@H](C)C[C@H](OC)[C@H](O)[C@@H](C)/C=C(\C)[C@@H]1OC(N)=O)C2=O [Alvespimycin] (1000 nM)	22.4%
CN(C)/N=N/c1[nH]cnc1C(N)=O [Dacarbazine] (10000 nM)	93.4%
Cc1ccc(-n2nc(C(C)(C)C)cc2NC(=O)Nc2ccc(OCCN3CCOCC3)c3ccccc23)cc1 [Doramapimod] (10000 nM)	82.3%
Cc1ccc(C(=O)Nc2ccc(CN3CCN(C)CC3)c(C(F)(F)F)c2)cc1C#Cc1cnc2cccnn12 [Ponatinib] (1000 nM)	36.5%
COc1cc2nccc(Oc3ccc(NC(=O)C4(C(=O)Nc5ccc(F)cc5)CC4)cc3)c2cc1OC [Cabozantinib] (1000 nM)	94%
CC1(C)NC(=O)N(c2ccc([N+](=O)[O-])c(C(F)(F)F)c2)C1=O [Nilutamide] (10000 nM)	95.1%

What follows are compounds tested on MDA-MB-231 in the same assay as above. Settings: incubation time: 72 h.
How it was run: as §1

Structure (SMILES)	normalised response
N[C@@H](CSC(c1ccccc1)(c1ccccc1)c1ccccc1)C(=O)O [S-trityl-L-cysteine] (40000 nM)	91.1%
CNCc1ccc(-c2[nH]c3cc(F)cc4c3c2CCNC4=O)cc1 [Rucaparib] (10000 nM)	75.7%
CO[C@H]1/C=C\C=C(/C)C(=O)NC2=CC(=O)C(NCCN(C)C)=C(C[C@@H](C)C[C@H](OC)[C@H](O)[C@@H](C)/C=C(\C)[C@@H]1OC(N)=O)C2=O [Alvespimycin] (1000 nM)	19%
CN(C)/N=N/c1[nH]cnc1C(N)=O [Dacarbazine] (10000 nM)	111%
